“And” between values parts separate entries of the source, which are not always exact repeats. Identical values can stand only once.
Test system: endotoxic mice (lipopolysaccharide endotoxin from E. coli at 60 mg/kg)
Test: Survival of endotoxic mice following lethal endotoxin dose
Format: in vivo, Swiss-Webster mice
Settings: endotoxin 60 mg/kg, 3 injections of 100 μg peptide at 5 minutes, 2 and 4 hours post endotoxin, alive at 0 hr: 10 (Tα1-N16-NH2 groups), 8 ([Glp]-Tα1, Tα1-Gly-NH2); for Number of Mice Alive Following Lethal Endotoxin Dose, 24 hr: endotoxin alone 4 of 10; for Number of Mice Alive Following Lethal Endotoxin Dose, 48 hr / Number of Mice Alive Following Lethal Endotoxin Dose, 72 hr / Number of Mice Alive Following Lethal Endotoxin Dose, 4 days / Number of Mice Alive Following Lethal Endotoxin Dose, 5 days: endotoxin alone 3 of 10
Experimental: Swiss-Webster mice were treated in five groups: endotoxic mice (mice injected with lipopolysaccharide endotoxin from E. coli at 60 mg/kg) which were otherwise untreated, and endotoxic mice treated with 3 injections of 100 μg Thymosin α1 -N16 Amide (Tα1 -N16 -NH2) treated in two groups, Pyroglutamyl-desacetyl Thymosin α1 ([glp]-Tα1), or Thymosin α1 -Gly Amide (Tα1 -gly-NH2) at 5 minutes, 2 and 4 hours post administration of the endotoxin.

Substance	Number of Mice Alive Following Lethal Endotoxin Dose, 24 hr	Number of Mice Alive Following Lethal Endotoxin Dose, 48 hr	Number of Mice Alive Following Lethal Endotoxin Dose, 72 hr	Number of Mice Alive Following Lethal Endotoxin Dose, 4 days	Number of Mice Alive Following Lethal Endotoxin Dose, 5 days
Ac-Ser-Asp-Ala-Ala-Val-Asp-Thr-Ser-Ser-Glu-Ile-Thr-Thr-Lys-Asp-Leu-Lys-Glu- Lys-Lys-Glu-Val-Val-Glu-Glu-Ala-Glu-Asn-Gly-NH2 (Ac-SDAAVDTSSEITTKDLKEKKEVVEEAENG-NH2) [Tα1 -Gly-NH2]	8	8	8	8	8
Ac-Ser-Asp-Ala-Ala-Val-Asp-Thr-Ser-Ser-Glu-Ile-Thr-Thr-Lys-Asp-Leu-NH2 (Ac-SDAAVDTSSEITTKDL-NH2) [Tα1 -N16 --NH2]	5 and 8	4 and 8	4 and 7	4 and 7	4 and 7
